pIC50: −log10 of the molar value.
Key:
[1] = Antiproliferative activity against mouse HCD-57 cells assessed as reduction in cell viability measured after 72 hrs by CellTiterGlo luminescent assay; assay type: toxicity, cell-based; settings: hcd-57, 72 h
A549 = experiment: Antiproliferative activity against human A549 cells assessed as reduction in cell viability measured after 72 hrs by CellTiterGlo luminescent assay; assay type: functional, cell-based; settings: A549, 72 h
Panc02 = experiment: Antiproliferative activity against mouse Panc02 cells assessed as reduction in cell viability measured after 72 hrs by CellTiterGlo luminescent assay; assay type: functional, cell-based; settings: Panc02, 72 h
[2] = system: Receptor-type tyrosine-protein kinase FLT3 (Homo sapiens), P36888 [UNDEFINED MUTATION]; experiment: Inhibition of FLT3-ITD-F691L mutant (unknown origin) transformed in mouse BaF3 cells assessed as inhibition of ERK phosphorylation at Thr202/Tyr204 residue incubated for 4 hrs by western blot analysis; assay type: cell-based; settings: dose 0.1-100 nM
Chain of Receptor-type tyrosine-protein kinase FLT3 (Homo sapiens), P36888 [UNDEFINED MUTATION] (P36888 whole entry, looked up, stated change not applied): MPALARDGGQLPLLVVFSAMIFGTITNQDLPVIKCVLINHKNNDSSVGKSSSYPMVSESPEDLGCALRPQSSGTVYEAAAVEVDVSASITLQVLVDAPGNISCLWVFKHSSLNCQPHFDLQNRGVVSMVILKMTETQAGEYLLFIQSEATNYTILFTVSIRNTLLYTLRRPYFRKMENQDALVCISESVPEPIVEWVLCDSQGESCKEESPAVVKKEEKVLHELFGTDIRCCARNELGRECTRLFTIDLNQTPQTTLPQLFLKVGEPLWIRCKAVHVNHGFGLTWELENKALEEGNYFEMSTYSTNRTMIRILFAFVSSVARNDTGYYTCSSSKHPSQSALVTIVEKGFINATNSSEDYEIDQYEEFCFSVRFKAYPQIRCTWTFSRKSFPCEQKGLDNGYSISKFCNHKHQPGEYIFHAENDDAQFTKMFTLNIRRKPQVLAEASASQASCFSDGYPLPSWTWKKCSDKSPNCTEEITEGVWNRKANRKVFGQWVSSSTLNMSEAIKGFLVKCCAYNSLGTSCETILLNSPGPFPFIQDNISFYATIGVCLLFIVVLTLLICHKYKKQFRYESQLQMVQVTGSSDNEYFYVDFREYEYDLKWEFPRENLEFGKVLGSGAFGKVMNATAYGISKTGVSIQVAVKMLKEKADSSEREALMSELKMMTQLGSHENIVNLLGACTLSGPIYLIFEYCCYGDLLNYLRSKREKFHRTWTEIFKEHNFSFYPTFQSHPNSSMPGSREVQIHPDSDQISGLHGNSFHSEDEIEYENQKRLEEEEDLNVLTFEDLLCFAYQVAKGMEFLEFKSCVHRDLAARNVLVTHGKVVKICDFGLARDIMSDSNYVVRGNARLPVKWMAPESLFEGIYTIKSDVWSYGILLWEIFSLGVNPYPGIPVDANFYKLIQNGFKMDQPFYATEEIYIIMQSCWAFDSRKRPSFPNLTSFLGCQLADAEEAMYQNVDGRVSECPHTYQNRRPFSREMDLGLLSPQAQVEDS

MV4-11 [3] = experiment: Induction of apoptosis in human MV4-11 cells assessed as viable cells at 100 nM incubated for 24 hrs by AnnexinV-FITC/PI staining based flow cytometry (reference value: 92.3%); assay type: functional; settings: read-out: Activity
MV4-11 [4] = experiment: Induction of apoptosis in human MV4-11 cells assessed as late apoptotic cells at 100 nM incubated for 24 hrs by AnnexinV-FITC/PI staining based flow cytometry (reference value: 4.2%); assay type: functional
MV4-11 [5] = experiment: Induction of cell cycle arrest in human MV4-11 cells assessed as proportion of cells at G1 phase at 10 nM incubated for 24 hrs by PI staining based flow cytometry (reference value: 56%); assay type: functional
[6] = MRT (0 to t) in Sprague-Dawley rat at 1 mg/kg, iv measured for 24 hrs by LC-MS/MS analysis; assay type: ADME, organism-based; settings: in vivo
[7] = Volume of distribution at steady state in Sprague-Dawley rat at 1 mg/kg, iv measured for 24 hrs by LC-MS/MS analysis; assay type: ADME, organism-based; settings: in vivo, read-out: Vdss
[8] = MRT (0 to t) in Sprague-Dawley rat at 10 mg/kg, po measured for 24 hrs by LC-MS/MS analysis; assay type: ADME, organism-based; settings: in vivo
[9] = Cmax in Sprague-Dawley rat at 10 mg/kg, po measured for 24 hrs by LC-MS/MS analysis; assay type: ADME, organism-based; parameters: time 24 hrs, dose 10 mg/kg, route po; settings: in vivo
[10] = Toxicity in BALB/c mouse xenografted with human MV4-11 cells assessed as change in body weight at 15 mg/kg, iv QD for 21 days; assay type: organism-based; settings: in vivo, 504 h, time 21 day
MV4-11 [11] = experiment: Antitumor activity against human MV4-11 cells xenografted in BALB/c mouse assessed as tumor growth inhibition at 15 mg/kg, iv BID for 21 days by vernier caliper analysis; assay type: functional; settings: MV4-11, 504 h, time 21 day, read-out: TGI
[12] = Toxicity in BALB/c mouse xenografted with human MV4-11 cells assessed as morphological changes in heart at 15 mg/kg, iv for 21 days by H and E staining based analysis; assay type: organism-based; settings: in vivo, 504 h, time 21 day
[13] = Toxicity in ICR mouse assessed as behavioural changes at 100 mg/kg, iv administered as single dose and measured for 14 days; assay type: organism-based; settings: in vivo, 336 h, time 14 day
BaF3 = experiment: cells; settings: Mus musculus, BaF3, 72 h
Description: Antiproliferative activity against mouse BaF3 cells harboring FLT3-ITD-D835V mutant assessed as reduction in cell viability measured after 72 hrs by CellTiterGlo luminescent assay

In the case of CCN1CCN(c2ccc(C(=O)Nc3cc(-c4ccc5ncn(Cc6c(Cl)cccc6Cl)c5c4)[nH]n3)cc2)CC1, the Activity [1] was “Non-Toxic”, the pIC50 (A549) was 5.44 and the pIC50 (Panc02) was 5.56. The inhibition [2] was “Dose-Dependent Effect”, the viability at 0.1 µM (MV4-11 [3]) was 59.7% and the Activity (MV4-11 [4]) was 24.5%. For the same molecule, the Activity (MV4-11 [5]) was 88.7%, the MRT last at 24 h [6] was 1.96 h and the Vd [7] was 6.27 L/kg. The MRT last at 24 h [8] was 3.63 h, the Cmax [9] was 9.31 ng/mL and the Activity [10] was “Non-Toxic”. For the same molecule, the inhibition in vivo at 15 mg/kg (MV4-11 [11]) was 108%, the Activity [12] was “Non-Toxic” and the Activity [13] was “Non-Toxic”. For the same molecule, the pIC50 (BaF3) was > 8.82.
